Reference: patent publication US20040166058A1, “Ethylenedicysteine (EC)-drug conjugates, compositions and methods for tissue specific disease imaging” (Board of Regents, The University of Texas System, priority 2002, published 2004)

How the values were obtained:
[1] = system: human lung cancer cells (A549 tumor cell line); assay: Biodistribution in lung tumor-bearing nude mice; type: in vivo, athymic nude mice; settings: for Biodistribution Blood / Biodistribution Brain / Biodistribution Heart / Biodistribution Intestine / Biodistribution Kidney / Biodistribution Liver / Biodistribution Lung / Biodistribution Muscle / Biodistribution Spleen / Biodistribution Stomach / Biodistribution Thyroid / Biodistribution Tumor / Tumor/Blood / Tumor/Lung / Tumor/Muscle: intravenously
Procedure: Female athymic nude mice (NCr-nu/nu, NCI, Bethasda, Md.) were inoculated with human lung cancer cells (A549 tumor cell line, 3×10^6 cells/mouse, intramuscular) by one author in the mid-dorsal region. After the tumor reached 6 mm, separate biodistribution studies using ^99mTc-EC-DG and 18F-FDG were conducted. Each received ^99mTc-EC-DG or 18F-FDG intravenously (n=3/time point). The injection activity was 1-3 μCi/mouse. The injected mass of ^99mTc-EC-DG was 0.2 mg/rodent.

[2] = system: RBA CRL-1747 mammary tumor; assay: Biodistribution in mammary (breast) tumor-bearing rats; type: in vivo; settings: iv
Procedure: (§1) Biodistribution was assessed in mammary tumor-bearing rats (RBA CRL-1747, n=3/time interval, iv). Studies were performed 14 to 17 days after implantation when tumors reached approximately 1 cm in diameter. Following administration of the radiotracer, rats were sacrificed at 0.5-4 hrs. The selected tissues were excised, weighed and counted for radioactivity by using a gamma counter (Packard Instruments, Downers Grove, Ill.). The biodistribution of tracer in each sample was calculated as percentage of the injected dose per gram of tissue wet weight (% ID/g).
as §1, with “breast” for “mammary”

## OC[C@H]1OC(O)[C@H]([18F])[C@@H](O)[C@@H]1O (some centres unmarked) [^18FDG, [^18F]fluorodeoxyglucose, reference compound]
[1]; 30 min
  Biodistribution Blood: 0.793 ± 0.067 % of injected dose per gram of tissue weight
  Biodistribution Brain: 6.557 ± 0.390 % of injected dose per gram of tissue weight
  Biodistribution Heart: 11.94 ± 2.571 % of injected dose per gram of tissue weight
  Biodistribution Intestine: 2.322 ± 0.542 % of injected dose per gram of tissue weight
  Biodistribution Kidney: 1.137 ± 0.117 % of injected dose per gram of tissue weight
  Biodistribution Liver: 1.051 ± 0.057 % of injected dose per gram of tissue weight
  Biodistribution Lung: 2.490 ± 0.209 % of injected dose per gram of tissue weight
  Biodistribution Muscle: 4.876 ± 0.621 % of injected dose per gram of tissue weight
  Biodistribution Spleen: 1.824 ± 0.196 % of injected dose per gram of tissue weight
  Biodistribution Stomach: 5.046 ± 0.461 % of injected dose per gram of tissue weight
  Biodistribution Thyroid: 4.490 ± 0.526 % of injected dose per gram of tissue weight
  Biodistribution Tumor: 2.226 ± 0.150 % of injected dose per gram of tissue weight
  Tumor/Blood: 2.821 ± 0.144
  Tumor/Lung: 0.912 ± 0.119
  Tumor/Muscle: 0.463 ± 0.026
[1]; 2 h
  Biodistribution Blood: 0.236 ± 0.009 % of injected dose per gram of tissue weight
  Biodistribution Brain: 3.113 ± 0.132 % of injected dose per gram of tissue weight
  Biodistribution Heart: 20.33 ± 7.675 % of injected dose per gram of tissue weight
  Biodistribution Intestine: 2.764 ± 0.496 % of injected dose per gram of tissue weight
  Biodistribution Kidney: 0.553 ± 0.104 % of injected dose per gram of tissue weight
  Biodistribution Liver: 0.586 ± 0.040 % of injected dose per gram of tissue weight
  Biodistribution Lung: 2.222 ± 0.137 % of injected dose per gram of tissue weight
  Biodistribution Muscle: 5.409 ± 0.611 % of injected dose per gram of tissue weight
  Biodistribution Spleen: 1.903 ± 0.144 % of injected dose per gram of tissue weight
  Biodistribution Stomach: 4.374 ± 0.864 % of injected dose per gram of tissue weight
  Biodistribution Thyroid: 4.617 ± 0.400 % of injected dose per gram of tissue weight
  Biodistribution Tumor: 1.699 ± 0.172 % of injected dose per gram of tissue weight
  Tumor/Blood: 7.261 ± 1.007
  Tumor/Lung: 0.775 ± 0.113
  Tumor/Muscle: 0.319 ± 0.031
[1]; 4 h
  Biodistribution Blood: 0.203 ± 0.062 % of injected dose per gram of tissue weight
  Biodistribution Brain: 2.065 ± 0.080 % of injected dose per gram of tissue weight
  Biodistribution Heart: 19.35 ± 8.286 % of injected dose per gram of tissue weight
  Biodistribution Intestine: 1.562 ± 0.342 % of injected dose per gram of tissue weight
  Biodistribution Kidney: 0.568 ± 0.027 % of injected dose per gram of tissue weight
  Biodistribution Liver: 0.785 ± 0.039 % of injected dose per gram of tissue weight
  Biodistribution Lung: 2.280 ± 0.182 % of injected dose per gram of tissue weight
  Biodistribution Muscle: 4.743 ± 0.610 % of injected dose per gram of tissue weight
  Biodistribution Spleen: 1.591 ± 0.161 % of injected dose per gram of tissue weight
  Biodistribution Stomach: 2.278 ± 0.455 % of injected dose per gram of tissue weight
  Biodistribution Thyroid: 4.424 ± 0.442 % of injected dose per gram of tissue weight
  Biodistribution Tumor: 1.606 ± 0.182 % of injected dose per gram of tissue weight
  Tumor/Blood: 8.932 ± 1.973
  Tumor/Lung: 0.717 ± 0.106
  Tumor/Muscle: 0.346 ± 0.048
[1]; mouse, in vivo
  tumor/blood ratios, 18F-FDG versus ^99mTc-EC-DG: higher tumor/blood ratios

## O=C(O)[C@@H]1C[S][99Tc]23(=[O])[S]C[C@@H](C(=O)O)[N]2CC[N]13 [^99mTc-EC, ^99mTc-L,L-ethylenedicysteine, reference compound]
[2]; 1 Hour
  Biodistribution Blood: 0.273 ± 0.039 % ID/g
  Biodistribution Intestine: 0.787 ± 0.106 % ID/g
  Biodistribution Kidney: 8.991 ± 0.268 % ID/g
  Biodistribution Liver: 0.367 ± 0.006 % ID/g
  Biodistribution Lung: 0.187 ± 0.029 % ID/g
  Biodistribution Muscle: 0.043 ± 0.002 % ID/g
  Biodistribution Stomach: 0.127 ± 0.106 % ID/g
  Biodistribution Thyroid: 0.229 ± 0.118 % ID/g
  Biodistribution Tumor: 0.149 ± 0.020 % ID/g
  Biodistribution Urine: 11.045 ± 6.158 % ID/g
  Tumor/Blood: 0.544 ± 0.004
  Tumor/Lung: 0.797 ± 0.022
  Tumor/Muscle: 3.414 ± 0.325
[2]; 2 Hour
  Biodistribution Blood: 0.211 ± 0.001 % ID/g
  Biodistribution Intestine: 0.401 ± 0.093 % ID/g
  Biodistribution Kidney: 9.116 ± 0.053 % ID/g
  Biodistribution Liver: 0.286 ± 0.073 % ID/g
  Biodistribution Lung: 0.144 ± 0.002 % ID/g
  Biodistribution Muscle: 0.028 ± 0.009 % ID/g
  Biodistribution Stomach: 0.037 ± 0.027 % ID/g
  Biodistribution Thyroid: 0.106 ± 0.003 % ID/g
  Biodistribution Tumor: 0.115 ± 0.002 % ID/g
  Biodistribution Urine: 13.192 ± 4.505 % ID/g
  Tumor/Blood: 0.546 ± 0.010
  Tumor/Lung: 0.797 ± 0.002
  Tumor/Muscle: 4.425 ± 1.397
[2]; 4 Hour
  Biodistribution Blood: 0.149 ± 0.008 % ID/g
  Biodistribution Intestine: 0.103 ± 0.009 % ID/g
  Biodistribution Kidney: 7.834 ± 1.018 % ID/g
  Biodistribution Liver: 0.234 ± 0.016 % ID/g
  Biodistribution Lung: 0.120 ± 0.012 % ID/g
  Biodistribution Muscle: 0.019 ± 0.001 % ID/g
  Biodistribution Stomach: 0.043 ± 0.014 % ID/g
  Biodistribution Thyroid: 0.082 ± 0.005 % ID/g
  Biodistribution Tumor: 0.096 ± 0.005 % ID/g
  Biodistribution Urine: 8.693 ± 2.981 % ID/g
  Tumor/Blood: 0.649 ± 0.005
  Tumor/Lung: 0.798 ± 0.007
  Tumor/Muscle: 5.093 ± 0.223
[2]; 30 Min.
  Biodistribution Blood: 0.435 ± 0.29 % ID/g
  Biodistribution Intestine: 0.173 ± 0.029 % ID/g
  Biodistribution Kidney: 7.914 ± 0.896 % ID/g
  Biodistribution Liver: 0.508 ± 0.062 % ID/g
  Biodistribution Lung: 0.272 ± 0.019 % ID/g
  Biodistribution Muscle: 0.060 ± 0.006 % ID/g
  Biodistribution Stomach: 0.136 ± 0.060 % ID/g
  Biodistribution Thyroid: 0.219 ± 0.036 % ID/g
  Biodistribution Tumor: 0.342 ± 0.163 % ID/g
  Biodistribution Urine: 9.124 ± 0.808 % ID/g
  Tumor/Blood: 0.776 ± 0.322
  Tumor/Lung: 1.256 ± 0.430
  Tumor/Muscle: 5.841 ± 3.253
